Experiments:
[1] = tested on: human MTC cells gene expression; test: RNA microarray analysis of h-MTC cells; assay type: cell-based
Experimental: Technical aspects of microarray studies, stringent quality control of microarray studies and statistic analysis of gene expression were as described previously. […] In brief, the array hybridization and processing, data retrieval and the analysis were carried out with standard sets of Affymetrix (Santa Clara, Calif.) equipment, software and protocols in an Affymetrix microarray core facility. RNA was extracted from cell cultures of two independent biological replicates of each experimental condition and analyzed for sample purity and integrity, using BioAnalyzer instrumentation (Agilent, Santa Clara, Calif.). Expression analysis of 54,675 transcripts was conducted for each sample, using Affymetrix HG-U133A Plus 2.0 arrays. Data retrieval and analysis was completed by MAS5.0 software. Concordant changes of gene expression for each experimental condition were determined at the statistical threshold P value, <0.01 (two-tailed t test).

Solubility = assay type: physicochemical
Experimental: Yield: 50%; off-white solid; recrist. solvent.: EtOH; TLC: Rf=0.43 (EtOAc/EtOH 9/1); RPTLC: Rf=0.43 (AcOH/H2O 8/2); mp=136° C.; IR (υ cm^−1): 1730 (CO); ^1H NMR (DMSO-d 6) δ (ppm): 7.79 (s, 2H, ArH), 7.14 (s, 2H, ArH), 4.06-4.02 (m, 2H, CH2), 3.93-3.89 (q, J=7.0 Hz, 2H, CH2), 3.59-3.56 (t, J=7.0 Hz, 1H, CH), 2.80-2.77 (m, 2H, CH2), 1.88 (br, 1H, NH), 1.41-1.39 (t, J=7.0 Hz, 3H, CH3), 1.15-1.12 (t, J=7.0 Hz, 3H, CH3); MS (ESI+) m/z 911.7[(M+DMSO)^+, 100], 833.7 [(M+H)+, 75]; Anal. Calcd. for C19H19I4NO4: C, 27.40; H, 2.30; N, 1.68. Found: C, 27.54; H, 1.94; N, 1.66. Solubility 10^−3M in water after preparing a solution at 10^−1M in DMSO.
When looking at the amorphous state, the solid was not stable and quickly returned to the crystal state. Thus, Tetrac was used as a salt with Na^+ as the counterion which reduced the use of DMSO to 10%. Then all analogs were solubilized with 10% DMSO in water for the TiPS protected analogs and in PBS for the others.

SKN-SH/R cells = test: Senescence and apoptosis in drug resistant cells; assay type: cell-based; conditions: 24 h
Experimental: In FIG. 16A, SKN-SH/R cells were subjected to treatment doxorubicin (Dox) alone, Tetrac alone, or the combination of both for 24 h. Expression of p21/WAF1, cleaved caspase-3 (Cl-Casp-3) and beta action were measured by Western blot using specific antibodies.
FIG. 16B discloses the cells were seeded in 24 well plates and treated as mentioned above and expression of the senescence associated beta galactosidase (SA-β-Gal.) was assayed as described in the methods section.
FIG. 16C discloses the cells were seeded on cover slips and treated with the drugs as above for 24 h, after which they were fixed and stained with Hoechst and the percentage of positive cells graphed. The data represent average of 3 determinations±SE.

MCF7 and MCF7/R cells = test: Intracellular accumulation of radiolabeled doxorubicin; assay type: cell-based; conditions: 24 hours, presence of Tetrac
Experimental: The cells were incubated for 24 hours with doxorubicin in the absence or the presence of Tetrac, after that they were washed and then solubilized. Radioactivity associated with the cell lysates was counted and compared between the two cell lines either treated or not with Tetrac. The data represent an average of 3 determinations±SE.

GL261 tumor cells = test: GL261 apoptosis and necrosis with or without 5 Gy x-rays; assay type: cell-based, murine; conditions: Tetrac 2 μM, T-NP 0.2 μM
Experimental: FIG. 61 is a comparison of apoptosis on Tetrac (2 μM) and T-NP (0.2 μM) treated GL261 cells that were or were not exposed to 5 Gy x-rays. The effects of Tetrac and T-NP plus 5 Gy of x-rays on apoptosis appear to be supra-additive.
Apoptotic cells were identified using TUNEL staining (Terminal deoxynucleotidyl transferase dUTP nick end labeling (TUNEL)) (staining kit obtained from Oncor, Gaithersberg, Md.; ApoTag) (See Gavrieli et al., J. Cell. Biol. 1992. 119:493-501). The staining procedures were carried out as instructed by the manufacturer. Gill's hematoxylin was used as a counterstain to discriminate negative cells (purple) from positive cells (brown). Negative controls were performed by omitting the terminal deoxynucleotidyl transferase enzyme. […]
To perform FCM, a total of 10^6 adherent cells were trypsinized and washed once in ambient temperature PBS. […] Cells were left overnight at 4° C. in the dark and were then analyzed on a Coulter fluorescence-activated cell sorter (Coulter Electronics, Hialeah, Fla.). Cells were excited with a single 488 nm argon laser and the resulting fluorescence was detected using a 585 nm filter. Linear red-orange fluorescence (FL3) data were collected in list format and 10,000 events were collected. The distribution of cells within the cell cycle (sub-G1, G1, S, and G2 M phases) was determined using a Coulter software program.

[2] = tested on: human medullary carcinoma of the thyroid (MTC) xenografts; conditions: mouse, in vivo
Experimental: Human medullary carcinoma cells (TT, Catalog No. CRL-1803) were purchased from American Type Culture Collection (Manassas, Va.) and cultured as instructed by the supplier, using a complete growth medium consisting of F-12K medium with 10% FBS. Cells were cultured in 5% CO2/air atmosphere at 37 C to sub-confluence and then treated with 0.25% (w/v) trypsin/EDTA to affect cell release from the culture vessel. After washing with culture medium, the cells were suspended in DMEM (free of phenol red and FBS) and counted. • Tetrac versus tetrac NP distribution in h-MTC. […] Female NCr nude homozygous mice aged 5-6 weeks and body weights of 20 g were purchased form Taconic Farms (Hudson N.Y.). Animals were maintained under specific pathogen-free conditions and housed 4 animals per cage, under controlled conditions of temperature (20-24° C.) and humidity (60-70%) and a 12 h light/dark cycle. Water and food were provided ad libitum.

[3] = tested on: Human medullary carcinoma of the thyroid (MTC) cells; test: Tumor growth and angiogenesis in the CAM cancer implant model; assay type: in vivo, chick; conditions: 1 μg/CAM, 8 days, n=8
Excerpt: Penicillin streptomycin (1%) was present in both culture media. […] Water and food were provided ad libitum.

For `O=C(O)Cc1cc(I)c(Oc2cc(I)c(O)c(I)c2)c(I)c1` [Tetrac, tetraiodothyroacetic acid], the VEGFA expression [1] was “significantly decreased expression”, the “expression of apoptosis genes (CASP2, DFFA, FAF1, CASP8AP2)” value [1] was “caused expression of genes associated with induction of apoptosis” and the “thrombospondin (THBS1) gene expression” value [1] was “concomitant increase”. The solubility in water (Solubility) was “difficult to solubilize in water”, the “doxorubicin-induced proliferation arrest, SA-β-Gal and cell death” value (SKN-SH/R cells) was “dramatically enhanced” and the “intracellular accumulation of radiolabeled doxorubicin” value (MCF7 and MCF7/R cells) was “increased significantly”. The “effect on apoptosis combined with 5 Gy of x-rays” value (GL261 tumor cells) was “supra-additive”, the “effect on necrosis combined with x-rays” value (GL261 tumor cells; 120 hours) was “essentially additive” and the mortality [2] was “no mortality”. For the same compound, the tumor growth [3] was “effective inhibition” and the tumor-mediated angiogenesis [3] was “significant inhibition”.

— US9839614B2, “Nanoparticle and polymer formulations for thyroid hormone analogs, antagonists, and formulations and uses thereof” (NANOPHARMACEUTICALS LLC, priority 2009, dated 2017)
